According to patent US10196403B2, “Compounds and compositions and uses thereof” (Sunovion Pharmaceuticals Inc., priority 2016, dated 2019):
Read-outs that look alike come from different tables or passages of the source.

Test system: mice
Assay: Neuropharmacological Assay (SmartCube)
Format: in vivo
Settings: for minimal effective dose: Mus musculus, read-out: POTENCY (minimal effective dose, MED); for AD: ADHD (SmartCube probability) / AG: analgesic (SmartCube probability) / AX: anxiolytic (SmartCube probability) / CE: cognitive enhancer (SmartCube probability) / DP: anti-depressant (SmartCube probability) / MS: mood stabilizer (SmartCube probability) / PS: anti-psychotic (SmartCube probability) / SD: sedative hypnotic (SmartCube probability) / UN: uncharacterized CNS activity (SmartCube probability): mice, i.p. 15 min before test, most efficacious dose(s) of 3 doses
Source text: Neuropharmacological Assay (SmartCube™)
Neurosci. 2011 Sep. 9; 5:103 (doi: 10.3389/fnins.2011.00103) (“Roberds”). As reported in Roberds, because psychiatric diseases generally result from disorders of cell-cell communication, circuitry, intact systems are useful in detecting improvement in disease-relevant endpoints. These endpoints are typically behavioral in nature, often requiring human observation and interpretation. To facilitate testing of multiple compounds for behavioral effects relevant to psychiatric disease, PsychoGenics, Inc. (Tarrytown, N.Y., “PGI”) developed SmartCube™, an automated system in which behaviors of compound-treated mice are captured by digital video and analyzed with computer algorithms. (D. Brunner et al., Drug Discov. Today 2002, 7:S107-S112). PGI Analytical Systems uses data from SmartCube™ to compare the behavioral signature of a test compound to a database of behavioral signatures obtained using a large set of diverse reference compounds. (The composition of the database as well as validation of the method is further described in Roberds). In this way, the neuropharmacological effects of a test compound can be predicted by similarity to major classes of compounds, such as antipsychotics, anxiolytics and antidepressants.
The SmartCube™ system produces an activity signature indicating the probability that the activity of the test compound at the administered dose matches a given class of neuropharmacological agents. (See, e.g., Roberds, FIGS. 2 and 3). The test compound is simultaneously compared against multiple classes of agents; thus, a separate probability is generated for each behavioral effect measured (e.g., anxiolytic activity, analgesic activity, etc.). In the table below, these probabilities are reported for each behavioral effect measured as follows:
where LOQ is the limit of quantification.
Provided compounds were dissolved in a mixture of Pharmasolve™ (N-methyl-2-pyrrolidone), polyethylene glycol and propylene glycol, and were injected i.p. 15 min. before the behavioral test. For each compound, injections were administered at 3 different doses. For each behavioral effect measured, results for the most efficacious dose(s) are presented. In the table below, DP: anti-depressant; AX: anxiolytic; SD: sedative hypnotic; PS: anti-psychotic; MS: mood stabilizer; AD: ADHD; CE: cognitive enhancer; AG: analgesic; UN: uncharacterized CNS activity.
The potency of many of the compounds in the table was also determined in the SmartCube™ system. Test compounds were routinely examined at dose levels of 0.3, 1, 3 10 and 30 mg per kg (mpk), although the dose range was increased or decreased if necessary to obtain a full dose response curve. A compound's minimal effective dose (MED) is a measure of the compounds potency. The MED was defined as the dose (in mpk) having 50% or more total activity in SmartCube.

[1] = MED = dose having 50% or more total activity in SmartCube

Row | Compound | minimal effective dose [1] [mg/kg] | AD: ADHD (SmartCube probability) | AG: analgesic (SmartCube probability) | AX: anxiolytic (SmartCube probability) | CE: cognitive enhancer (SmartCube probability) | DP: anti-depressant (SmartCube probability) | MS: mood stabilizer (SmartCube probability) | PS: anti-psychotic (SmartCube probability) | SD: sedative hypnotic (SmartCube probability) | UN: uncharacterized CNS activity (SmartCube probability) | minimal effective dose [mg/kg]
1 | CNC[C@@H]1OCCc2c(O)cc3c(c21)OCO3 (single isomer, unassigned) [Example 103] | > 30 | + (LOQ≤ + <5%) | + (LOQ≤ + <5%) | + (LOQ≤ + <5%) | + (LOQ≤ + <5%) | + (LOQ≤ + <5%) | + (LOQ≤ + <5%) | + (LOQ≤ + <5%) | + (LOQ≤ + <5%) | + (LOQ≤ + <5%) | 
2 | CNC[C@H]1OCCc2c(O)cc3c(c21)OCO3 (single isomer, unassigned) [Example 104] | < 3 | + (LOQ≤ + <5%) | + (LOQ≤ + <5%) | +++ (25%≤ +++ <50%) | ++ (5%≤ ++ <25%) | ++++ (50%≤ ++++) | + (LOQ≤ + <5%) | + (LOQ≤ + <5%) | ++ (5%≤ ++ <25%) | ++ (5%≤ ++ <25%) | 
3 | CNC[C@@H]1OC[C@@H](O)c2ccc3c(c21)OCO3 (single isomer, unassigned) [Example 111] | 10 to 30 | + (LOQ≤ + <5%) | + (LOQ≤ + <5%) | ++ (5%≤ ++ <25%) | + (LOQ≤ + <5%) | ++++ (50%≤ ++++) | + (LOQ≤ + <5%) | ++ (5%≤ ++ <25%) | + (LOQ≤ + <5%) | + (LOQ≤ + <5%) | 
4 | CNC[C@H]1OC[C@H](O)c2ccc3c(c21)OCO3 (single isomer, unassigned) [Example 112] | > 30 | + (LOQ≤ + <5%) | + (LOQ≤ + <5%) | ++ (5%≤ ++ <25%) | + (LOQ≤ + <5%) | ++ (5%≤ ++ <25%) | + (LOQ≤ + <5%) | + (LOQ≤ + <5%) | + (LOQ≤ + <5%) | + (LOQ≤ + <5%) | 
5 | CNC[C@H]1OC[C@@H](O)c2ccc3c(c21)OCO3 (single isomer, unassigned) [Example 113] | > 30 | + (LOQ≤ + <5%) | + (LOQ≤ + <5%) | ++ (5%≤ ++ <25%) | + (LOQ≤ + <5%) | + (LOQ≤ + <5%) | + (LOQ≤ + <5%) | + (LOQ≤ + <5%) | + (LOQ≤ + <5%) | + (LOQ≤ + <5%) | 
6 | CNC[C@@H]1OC[C@H](O)c2ccc3c(c21)OCO3 (single isomer, unassigned) [Example 114] | 10 to 30 | + (LOQ≤ + <5%) | + (LOQ≤ + <5%) | ++ (5%≤ ++ <25%) | + (LOQ≤ + <5%) | + (LOQ≤ + <5%) | + (LOQ≤ + <5%) | ++ (5%≤ ++ <25%) | + (LOQ≤ + <5%) | +++ (25%≤ +++ <50%) | 
7 | CNC[C@H]1OCCc2cc3c(cc21)OCO3 (stereo in doubt) [Example 5, (S)-1-(7,8-dihydro-5H-[1,3]dioxolo[4,5-g]isochromen-5-yl)-N-methylmethanamine] | > 30 | + (LOQ≤ + <5%) | ++ (5%≤ ++ <25%) | ++ (5%≤ ++ <25%) | + (LOQ≤ + <5%) | + (LOQ≤ + <5%) | + (LOQ≤ + <5%) | + (LOQ≤ + <5%) | + (LOQ≤ + <5%) | + (LOQ≤ + <5%) | 
8 | CNC[C@@H]1OCCc2cc3c(cc21)OCO3 (stereo in doubt) [Example 6, (R)-1-(7,8-dihydro-5H-[1,3]dioxolo[4,5-g]isochromen-5-yl)-N-methylmethanamine] | 10 to 30 | + (LOQ≤ + <5%) | + (LOQ≤ + <5%) | ++ (5%≤ ++ <25%) | + (LOQ≤ + <5%) | + (LOQ≤ + <5%) | ++ (5%≤ ++ <25%) | ++ (5%≤ ++ <25%) | + (LOQ≤ + <5%) | ++++ (50%≤ ++++) | 
9 | CNC[C@H]1OCCc2ccc3c(c21)OCO3 [Example 1, (S)-1-(6,9-dihydro-7H-[1,3]dioxolo[4,5-h]isochromen-9-yl)-N-methylmethanamine] |  | + (LOQ≤ + <5%) | + (LOQ≤ + <5%) | ++ (5%≤ ++ <25%) | + (LOQ≤ + <5%) | ++++ (50%≤ ++++) | + (LOQ≤ + <5%) | ++ (5%≤ ++ <25%) | ++ (5%≤ ++ <25%) | + (LOQ≤ + <5%) | < 3
10 | CNC[C@H]1OCCc2c1ccc1c2OCO1 [Example 3, (S)-1-(8,9-dihydro-6H-[1,3]dioxolo[4,5-f]isochromen-6-yl)-N-methylmethanamine] | 10 to 30 | ++ (5%≤ ++ <25%) | ++ (5%≤ ++ <25%) | ++ (5%≤ ++ <25%) | + (LOQ≤ + <5%) | +++ (25%≤ +++ <50%) | + (LOQ≤ + <5%) | + (LOQ≤ + <5%) | + (LOQ≤ + <5%) | + (LOQ≤ + <5%) | 
11 | CNC[C@@H]1OCCc2c1ccc1c2OCO1 [Example 4, (R)-1-(8,9-dihydro-6H-[1,3]dioxolo[4,5-f]isochromen-6-yl)-N-methylmethanamine] | 3 to 10 | + (LOQ≤ + <5%) | ++ (5%≤ ++ <25%) | + (LOQ≤ + <5%) | + (LOQ≤ + <5%) | ++++ (50%≤ ++++) | + (LOQ≤ + <5%) | + (LOQ≤ + <5%) | + (LOQ≤ + <5%) | + (LOQ≤ + <5%) | 
